# Experimental data: PubChem BioAssay (NCI)
#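 In this assay, cells in 96-well plates receive the compound at five concentrations for 48 hours. Endpoints are linearly interpolated between the surrounding concentrations. GI50 = concentration required for 50% inhibition of growth. TGI marks complete inhibition of growth.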
# Assays:
# Experiment in all cases: NCI anticancer screen, dose series, 48 h
# [1] = system: 786-0 renal
# [2] = system: A498 renal
# [3] = system: A549 NSCLC
# [4] = system: ACHN renal
# [5] = system: BT-549 breast
# [6] = system: CAKI-1 renal
# [7] = system: CCRF-CEM leukemia
# [8] = system: COLO 205 colon
# [9] = system: DU-145 prostate
# [10] = system: EKVX NSCLC
# [11] = system: HCC-2998 colon
# [12] = system: HCT-116 colon
# [13] = system: HCT-15 colon
# [14] = system: HL-60(TB) leukemia
# [15] = system: HOP-62 NSCLC
# [16] = system: HOP-92 NSCLC
# [17] = system: HS 578T breast
# [18] = system: HT29 colon
# [19] = system: IGROV1 ovarian
# [20] = system: K-562 leukemia
# [21] = system: KM12 colon
# [22] = system: LOX IMVI melanoma
# [23] = system: M14 melanoma
# [24] = system: MALME-3M melanoma
# [25] = system: MCF7 breast
# [26] = system: MDA-MB-231 breast
# [27] = system: MDA-MB-435
# [28] = system: MOLT-4 leukemia
# [29] = system: NCI-H226 lung
# [30] = system: NCI-H23 lung
# [31] = system: NCI-H460 lung
# [32] = system: NCI-H522 lung
# [33] = system: NCI/ADR-RES ovarian
# [34] = system: OVCAR-3 ovarian
# [35] = system: OVCAR-4 ovarian
# [36] = system: OVCAR-5 ovarian
# [37] = system: OVCAR-8 ovarian
# [38] = system: PC-3 prostate
# [39] = system: RPMI-8226 leukemia
# [40] = system: RXF 393 renal
# [41] = system: SF-268 CNS
# [42] = system: SF-295 CNS
# [43] = system: SF-539 CNS
# [44] = system: SK-MEL-2 melanoma
# [45] = system: SK-MEL-28 melanoma
# [46] = system: SK-MEL-5 melanoma
# [47] = system: SK-OV-3 ovarian
# [48] = system: SN12C renal
# [49] = system: SNB-19 CNS
# [50] = system: SNB-75 CNS
# [51] = system: SW-620 colon
# [52] = system: T-47D breast
# [53] = system: TK-10 renal
# [54] = system: U251 CNS
# [55] = system: UACC-257 melanoma
# [56] = system: UACC-62 melanoma
# [57] = system: UO-31 renal
smiles,measurement,setting,value
CCOC(=O)CC1C(COC(=O)NC)OC(n2cnc3c(NC(=O)Nc4ccccc4)ncnc32)C1O[Si](C)(C)C(C)(C)C (centres undefined),GI50,[1],7.94 µM
same,TGI,[1],21.5 µM
same,GI50,[2],4.65 µM
same,TGI,[2],21.4 µM
same,GI50,[3],6.93 µM
same,TGI,[3],> 100 µM
same,GI50,[4],5.92 µM
same,TGI,[4],> 100 µM
same,GI50,[5],2.07 µM
same,TGI,[5],6.71 µM
same,GI50,[6],3.72 µM
same,TGI,[6],38.8 µM
same,GI50,[7],3.23 µM
same,TGI,[7],> 100 µM
same,GI50,[8],7.7 µM
same,TGI,[8],20.2 µM
same,GI50,[9],5.21 µM
same,TGI,[9],28.2 µM
same,GI50,[10],3.39 µM
same,TGI,[10],> 100 µM
same,GI50,[11],8.76 µM
same,TGI,[11],28.8 µM
same,GI50,[12],2.33 µM
same,TGI,[12],5.38 µM
same,GI50,[13],11.7 µM
same,TGI,[13],> 100 µM
same,GI50,[14],1.39 µM
same,TGI,[14],3.78 µM
same,GI50,[15],14.7 µM
same,TGI,[15],77.7 µM
same,GI50,[16],6.52 µM
same,TGI,[16],28.9 µM
same,GI50,[17],3.39 µM
same,TGI,[17],14.7 µM
same,GI50,[18],3.97 µM
same,TGI,[18],17.7 µM
same,GI50,[19],13.7 µM
same,TGI,[19],> 100 µM
same,GI50,[20],3.09 µM
same,TGI,[20],> 100 µM
same,GI50,[21],3.21 µM
same,TGI,[21],10.7 µM
same,GI50,[22],7.78 µM
same,TGI,[22],23 µM
same,GI50,[23],6.37 µM
same,TGI,[23],95.7 µM
same,GI50,[24],3.34 µM
same,TGI,[24],33.1 µM
same,GI50,[25],3.37 µM
same,TGI,[25],17.1 µM
same,GI50,[26],17.5 µM
same,TGI,[26],> 100 µM
same,GI50,[27],3.26 µM
same,TGI,[27],> 100 µM
same,GI50,[28],1.99 µM
same,TGI,[28],5.74 µM
same,GI50,[29],11.8 µM
same,TGI,[29],36.6 µM
same,GI50,[30],12.9 µM
same,TGI,[30],53 µM
same,GI50,[31],4.45 µM
same,TGI,[31],17.2 µM
same,GI50,[32],9.58 µM
same,TGI,[32],> 100 µM
same,GI50,[33],9.18 µM
same,TGI,[33],30.6 µM
same,GI50,[34],2.42 µM
same,TGI,[34],5.6 µM
same,GI50,[35],10.7 µM
same,TGI,[35],> 100 µM
same,GI50,[36],12.8 µM
same,TGI,[36],39.7 µM
same,GI50,[37],10.3 µM
same,TGI,[37],> 100 µM
same,GI50,[38],2.87 µM
same,TGI,[38],25.4 µM
same,GI50,[39],2.16 µM
same,TGI,[39],5.48 µM
same,GI50,[40],2.94 µM
same,TGI,[40],12.4 µM
same,GI50,[41],5.06 µM
same,TGI,[41],33.8 µM
same,GI50,[42],2.83 µM
same,TGI,[42],15.1 µM
same,GI50,[43],11.5 µM
same,TGI,[43],26.4 µM
same,GI50,[44],13.2 µM
same,TGI,[44],57.3 µM
same,GI50,[45],7.77 µM
same,TGI,[45],> 100 µM
same,GI50,[46],5.7 µM
same,TGI,[46],18.6 µM
same,GI50,[47],40.4 µM
same,TGI,[47],> 100 µM
same,GI50,[48],2.17 µM
same,TGI,[48],5.19 µM
same,GI50,[49],49.2 µM
same,TGI,[49],> 100 µM
same,GI50,[50],10.3 µM
same,TGI,[50],50.2 µM
same,GI50,[51],4.59 µM
same,TGI,[51],78.1 µM
same,GI50,[52],4.95 µM
same,TGI,[52],84.7 µM
same,GI50,[53],10.7 µM
same,TGI,[53],50 µM
same,GI50,[54],7.57 µM
same,TGI,[54],32.3 µM
same,GI50,[55],20.8 µM
same,TGI,[55],> 100 µM
same,GI50,[56],15.8 µM
same,TGI,[56],> 100 µM
same,GI50,[57],5.7 µM
same,TGI,[57],55.4 µM
